Reference: patent US7119094B1, “Substituted polycyclic aryl and heteroarpyl pyrazinones useful for selective inhibition of the coagulation cascade” (Warner-Lambert Company, priority 2000, dated 2006)
Like-named read-outs stand apart in the source and are kept apart here.

Experiments:
[1] = target: T1, recombinant soluble tissue factor and recombinant human factor VIIa (TF-VIIa) (Homo sapiens, UniProt P08709); experiment: TF-VIIa Assay; assay type: biochemical
T1 construct: conversion of coagulation factor VII to VIIa by Xa; purchased American Diagnostica, Greenwich Conn; host or cells: factor VIIa purchased; soluble TF made in house in E. coli

[2] = target: T2, Trypsin (type 1× from porcine pancreas) (Sus scrofa, UniProt P00761); experiment: Trypsin Assay; assay type: biochemical; design: % Inhibition Trypsin II @ 1: concentration or dose not given beside the values; settings: for % Inhibition Trypsin II (30 µM): at 30 µM
T2 construct: Trypsin (5 ug/ml; type 1× from porcine pancreas); purchased Sigma, St. Louis Mo; host or cells: porcine pancreas
T2 sequence (P00761 9-231): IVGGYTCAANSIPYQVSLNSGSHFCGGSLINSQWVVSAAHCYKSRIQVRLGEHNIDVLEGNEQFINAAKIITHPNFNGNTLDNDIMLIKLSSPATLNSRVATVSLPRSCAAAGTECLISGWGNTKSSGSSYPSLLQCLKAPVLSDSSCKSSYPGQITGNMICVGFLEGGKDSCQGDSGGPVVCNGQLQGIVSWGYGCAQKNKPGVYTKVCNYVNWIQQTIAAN

T1 sequence (P08709 213-466 limits assumed): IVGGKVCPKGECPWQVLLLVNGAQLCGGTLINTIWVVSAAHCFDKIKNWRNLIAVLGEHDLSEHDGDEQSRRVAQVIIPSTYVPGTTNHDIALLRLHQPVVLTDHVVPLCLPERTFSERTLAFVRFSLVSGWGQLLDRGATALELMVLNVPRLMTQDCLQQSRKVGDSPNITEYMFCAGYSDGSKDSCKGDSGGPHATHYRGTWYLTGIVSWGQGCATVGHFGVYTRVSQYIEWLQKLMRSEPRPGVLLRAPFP
T1 sequence (P08709 61-212 limits assumed): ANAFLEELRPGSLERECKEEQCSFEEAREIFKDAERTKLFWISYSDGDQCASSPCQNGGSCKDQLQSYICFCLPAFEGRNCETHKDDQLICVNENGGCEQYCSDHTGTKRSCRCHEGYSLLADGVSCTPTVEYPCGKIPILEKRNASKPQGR
T1 sequence (P13726 33-251 partner limits assumed): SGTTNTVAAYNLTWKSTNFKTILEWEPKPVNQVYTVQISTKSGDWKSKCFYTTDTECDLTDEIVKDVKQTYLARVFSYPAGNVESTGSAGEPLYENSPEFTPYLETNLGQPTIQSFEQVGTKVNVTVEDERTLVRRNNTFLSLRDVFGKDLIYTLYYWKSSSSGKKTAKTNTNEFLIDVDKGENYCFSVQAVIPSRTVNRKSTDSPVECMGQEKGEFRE

Compound	% Inhibition TF-VIIa (100 νM) ([1]; inhibitor at 100 νM) [%]	% Inhibition Trpysin II (100 νM) ([2]; inhibitor at 100 νM) [%]	% Inhibition Trypsin II @ 1 [2] [% @ 1]	further results
O=C(Cn1c(Cc2ccccc2)c(Cl)nc(NCCc2ccncc2)c1=O)NCCc1ccncc1 [Example E-0062]	0	0		
O=C(Cn1c(CCc2ccccc2)c(Cl)nc(NCCN2CCOCC2)c1=O)NCCc1ccncc1 [Example E-0071]	0	0		
O=C(Cn1c(-c2ccccc2)c(Cl)nc(NCc2ccncc2)c1=O)NCCc1ccncc1 [Example E-0016]	0	4		
O=C(Cn1c(-c2ccc(Cl)cc2)c(Cl)nc(NCCc2ccccc2)c1=O)NCCc1ccncc1 [Example E-0026]	0	3		
O=C(Cn1c(-c2cccc(Cl)c2)c(Cl)nc(NCCc2cccc(Cl)c2)c1=O)NCCc1cccnc1 [Example E-0092]	1	9		
O=C(Cn1c(-c2cccc(Cl)c2)c(Cl)nc(NCCc2ccc(Cl)cc2)c1=O)NCCc1cccnc1 [Example E-0095]	2	9		
N=C(N)c1ccc(CNC(=O)Cn2c(-c3ccccc3)c(Cl)nc(NCc3ccccn3)c2=O)cc1 [1507-24]				% Inhibition Trypsin II (30 µM) [2]: 25% @ 30
N=C(N)c1ccc(CNC(=O)Cn2c(-c3ccccc3)c(Cl)nc(NCc3cccc(F)c3)c2=O)cc1 [1507-42]			0	
COc1ccc(-c2c(Cl)nc(NCCc3cccc(Cl)c3)c(=O)n2CC(=O)NCCc2cccnc2)cc1 [Example E-0104]	3	9		
COc1ccc(-c2c(Cl)nc(NCCc3ccc(Cl)cc3)c(=O)n2CC(=O)NCCc2ccncc2)cc1 [Example E-0036]	0	0		
O=C(Cn1c(-c2cccc(Cl)c2)c(Cl)nc(NCc2ccccc2)c1=O)NCCc1cccnc1 [Example E-0074]	0	8		
O=C(Cn1c(-c2ccc(-c3ccccc3)cc2)c(Cl)nc(NCCc2ccccc2)c1=O)NCCc1ccncc1 [Example E-0112]				% Inhibition TF-VIIa (100 νM) [1]: 11%; % Inhibition Trpysin II (100 νM) [2]: 13%
O=C(Cn1c(-c2ccc(Cl)cc2)c(Cl)nc(NCCc2ccncc2)c1=O)NCCc1ccncc1 [Example E-0022]	0	2		
N=C(N)c1ccc(CNC(=O)Cn2c(-c3ccccc3)c(Cl)nc(NCc3ccc(F)cc3F)c2=O)cc1 [1507-26]			11	
Cc1c(Cl)nc(NCCN2CCOCC2)c(=O)n1CC(=O)NCCc1ccncc1 [Example E-0007]	0	0		
O=C(Cn1c(-c2cccc(Cl)c2)c(Cl)nc(NCCc2ccccc2)c1=O)NCCc1ccncc1 [Example E-0076]	0	10		
O=C(Cn1c(-c2ccccc2)c(Cl)nc(NCCc2ccccc2)c1=O)NCCc1ccncc1 [Example E-0010]	0	0		
COc1ccc(-c2c(Cl)nc(NCc3ccncc3)c(=O)n2CC(=O)NCCc2ccncc2)cc1 [Example E-0040]	0	4		
O=C(Cn1c(-c2ccc3c(c2)OCO3)c(Cl)nc(NCCc2ccccc2)c1=O)NCCc1ccncc1 [Example E-0042]	0	5		
N=C(N)c1ccc(CNC(=O)Cn2c(-c3ccccc3)c(Cl)nc(NCc3ccc(Br)cc3)c2=O)cc1 [1507-30]			0	

Compound	% Inhibition TF-VIIa (100 νM) ([1]; inhibitor at 100 νM) [%]	% Inhibition Trpysin II (100 νM) ([2]; inhibitor at 100 νM) [%]	% Inhibition Trypsin II @ 1 [2] [% @ 1]	further results
COc1ccc(-c2c(Cl)nc(NCCc3cccnc3)c(=O)n2CC(=O)NCCc2ccncc2)cc1 [Example E-0037]	0	2		
O=C(Cn1c(-c2ccc(Cl)cc2)c(Cl)nc(NCCc2cccnc2)c1=O)NCCc1ccncc1 [Example E-0029]	0	2		
O=C(Cn1c(-c2ccc(-c3ccccc3)cc2)c(Cl)nc(NCc2ccccc2)c1=O)NCCc1ccncc1 [Example E-0109]				% Inhibition TF-VIIa (100 νM) [1]: 2%; % Inhibition Trpysin II (100 νM) [2]: 12%
O=C(Cn1c(-c2cccc(Cl)c2)c(Cl)nc(NCc2ccccc2)c1=O)NCCc1ccncc1 [Example E-0085]	0	9		
N=C(N)c1ccc(CNC(=O)Cn2c(-c3ccccc3)c(Cl)nc(NCc3cccc4ccccc34)c2=O)cc1 [1507-28]			1	
COc1ccc(-c2c(Cl)nc(NCCc3ccc(Cl)cc3)c(=O)n2CC(=O)NCCc2ccncc2)cc1 [Example E-0106]	5	9		
COc1ccc(-c2c(Cl)nc(NCCc3ccc(Cl)cc3)c(=O)n2CC(=O)NCCc2cccnc2)cc1 [Example E-0107]	4	12		
O=C(Cn1c(-c2cccc(Cl)c2)c(Cl)nc(NCCc2cccc(Cl)c2)c1=O)NCCc1ccncc1 [Example E-0091]	1	8		
O=C(Cn1c(-c2cccc(Cl)c2)c(Cl)nc(NCCc2cccc(Cl)c2)c1=O)NCCc1ccncc1 [Example E-0079]	0	11		
N=C(N)c1ccc(CNC(=O)Cn2c(-c3ccccc3)c(Cl)nc(NC(Cc3ccccc3)c3ccccc3)c2=O)cc1 (centres unmarked) [1507-07]			7	
O=C(Cn1c(-c2ccc3c(c2)OCO3)c(Cl)nc(NCCc2cccc(Cl)c2)c1=O)NCCc1ccncc1 [Example E-0043]	0	3		
COc1ccc(-c2c(Cl)nc(NCc3ccccc3)c(=O)n2CC(=O)NCCc2ccncc2)cc1 [Example E-0033]	0	5		
COc1ccc(-c2c(Cl)nc(NCCc3ccncc3)c(=O)n2CC(=O)NCCc2ccncc2)cc1 [Example E-0038]	0	3		
O=C(Cn1c(CCc2ccccc2)c(Cl)nc(NCCc2cccnc2)c1=O)NCCc1ccncc1 [Example E-0069]	0	0		
Cc1c(Cl)nc(NCCc2ccc(Cl)cc2)c(=O)n1CC(=O)NCc1ccc(C(=N)N)cc1 [1471-2]				% Inhibition Trypsin II (30 µM) [2]: 0%
C[C@H](Nc1nc(Cl)c(-c2ccccc2)n(CC(=O)NCc2ccc(C(=N)N)cc2)c1=O)c1ccccc1 [1507-34]			0	
N=C(N)c1ccc(CNC(=O)Cn2c(-c3ccccc3)c(Cl)nc(NCCc3cccs3)c2=O)cc1 [1507-18]			6	
N=C(N)c1ccc(CNC(=O)Cn2c(-c3cccc(N)c3)c(Cl)nc(NCCc3ccccc3)c2=O)cc1 [Example 86]			78	
N=C(N)c1ccc(CNC(=O)Cn2c(-c3ccccc3)c(Cl)nc(NCc3ccc(Cl)cc3Cl)c2=O)cc1 [1507-22]			8	
O=C(Cn1c(-c2ccccc2)c(Cl)nc(NCCN2CCOCC2)c1=O)NCCc1ccncc1 [Example E-0015]	0			

Compound	% Inhibition TF-VIIa (100 νM) ([1]; inhibitor at 100 νM) [%]	% Inhibition Trpysin II (100 νM) ([2]; inhibitor at 100 νM) [%]	% Inhibition Trypsin II @ 1 [2] [% @ 1]	further results
CC(C)CNc1nc(Cl)c(-c2ccccc2)n(CC(=O)NCc2ccc(C(=N)N)cc2)c1=O [1507-32]			0	
N=C(N)NCC#CCNC(=O)Cn1c(-c2ccccc2)cnc(NCCc2ccccc2)c1=O [Example 36]				% Inhibition Trypsin II (30 µM) [2]: 30%
COc1ccc(CNc2nc(Cl)c(-c3ccccc3)n(CC(=O)NCc3ccc(C(=N)N)cc3)c2=O)cc1 [1507-13]			8	
Cc1ccc(CCNc2nc(Cl)c(-c3ccccc3)n(CC(=O)NCc3ccc(C(=N)N)cc3)c2=O)cc1 [1507-45]			0	
Nc1cccc(-c2c(Cl)nc(NC3CCC3)c(=O)n2CC(=O)NCCc2ccccc2)c1 [Example 89]				% Inhibition Trypsin II (30 µM) [2]: 9% @ 30
N=C(N)c1ccc(CNC(=O)Cn2c(-c3ccccc3)c(Cl)nc(NCC3CC3)c2=O)cc1 [Example 1517-43]				% Inhibition Trypsin II (30 µM) ([2]; cells with % sign): 43%
N=C(N)c1ccc(CNC(=O)Cn2c(-c3ccccc3)c(Cl)nc(NCCc3ccc(Br)cc3)c2=O)cc1 [1507-06]			8	
N=C(N)c1ccc(CNC(=O)Cn2c(-c3ccc4c(c3)OCO4)c(Cl)nc(NCCc3ccc(Cl)cc3)c2=O)cc1 [1471-42]				IC50 ([1]; read-out: IC50 TF-VIIa): 10.5 µM
COc1ccc(CCNc2nc(Cl)c(-c3ccccc3)n(CC(=O)NCc3ccc(C(=N)N)cc3)c2=O)cc1 [1507-11]			27	
N=C(N)c1ccc(CNC(=O)Cn2c(-c3ccccc3)c(Cl)nc(NC3CCCC3)c2=O)cc1 [1507-25]			60	
N=C(N)c1ccc(CNC(=O)Cn2c(-c3ccccc3)c(Cl)nc(NCc3cccc(Cl)c3)c2=O)cc1 [1507-38]			0	
CC(C)Nc1nc(Cl)c(-c2cccc([N+](=O)[O-])c2)n(CC(=O)NCc2ccc(C(N)=NO)cc2)c1=O [Example 61]				% Inhibition Trypsin II (30 µM) [2]: 10%
Nc1cccc(-c2c(Cl)nc(NC3CCC3)c(=O)n2CC(=O)NCc2ccccc2)c1 [Example 99]				% Inhibition Trypsin II (30 µM) [2]: 7% @ 30
COc1ccc(-c2c(Cl)nc(NCCc3ccccc3)c(=O)n2CC(=O)NCCc2ccncc2)cc1 [Example E-0100]		12		
N=C(N)c1ccc(CNC(=O)Cn2c(-c3ccccc3)c(Cl)nc(NCc3ccc(OC(F)(F)F)cc3)c2=O)cc1 [1507-04]			9	
N=C(N)c1ccc(CNC(=O)Cn2c(-c3ccccc3)c(Cl)nc(NC3CC3)c2=O)cc1 [1507-31]			2	
COc1cccc(CCNc2nc(Cl)c(-c3ccccc3)n(CC(=O)NCc3ccc(C(=N)N)cc3)c2=O)c1 [1507-12]			12	
N=C(N)c1ccc(CNC(=O)Cn2c(-c3ccccc3)c(Cl)nc(NCc3ccccc3C(F)(F)F)c2=O)cc1 [1507-15]			11	
